Measured values published in ChEMBL document CHEMBL5346865, “Male contraceptive development: A medicinal chemistry perspective” (Eur J Med Chem, 2022).

How the values were obtained:
[1] = Inhibition of sperm motility in human Spermatozoa incubated for 1 to 2 hrs by computer assisted sperm analysis; format: functional, cell-based
[2] = Inhibition of sperm motility in human Spermatozoa assessed as remaining progressive sperm motility relative to control; format: functional
[3] = Half life in cynomolgus monkey at 1 mg/kg, iv administered as single infusion dose; format: ADME, organism-based, Macaca fascicularis; conditions: in vivo
Mus musculus = species on record: Mus musculus; assay: Contraceptive effect in mouse model of contraception; format: functional

COC(=O)NNc1nc(Nc2ccc(NC(C)=O)c(O)c2)nc(SCC(=O)O)n1
IC50 [1]: 200 µM | Activity [2]: <20% | half-life [3]: < 12 min

Cc1ccc(C2=CC(C)(C)Oc3ccc(-c4ccc(-c5ccc(C(=O)[O-])cc5)[nH]4)cc32)cc1.[Na+]
Activity (Mus musculus): >99%
